{
  "source": "patent US6716831B1",
  "about": "“2,4-diamino-pyrimidine deprivatives having anti-cell proliferative activity” (AstraZeneca AB, priority 1999, dated 2004)",
  "target": "T1, human Focal Adhesion Kinase (FAK) (Homo sapiens, UniProt Q05397)",
  "T1 construct": "FAK (full length human cDNA described by Andre et al); 6-histidine tag (N); made in house; host or cells: Sf21 insect cells (baculovirus, pFastbac 1)",
  "T1 sequence (Q05397 whole entry)": "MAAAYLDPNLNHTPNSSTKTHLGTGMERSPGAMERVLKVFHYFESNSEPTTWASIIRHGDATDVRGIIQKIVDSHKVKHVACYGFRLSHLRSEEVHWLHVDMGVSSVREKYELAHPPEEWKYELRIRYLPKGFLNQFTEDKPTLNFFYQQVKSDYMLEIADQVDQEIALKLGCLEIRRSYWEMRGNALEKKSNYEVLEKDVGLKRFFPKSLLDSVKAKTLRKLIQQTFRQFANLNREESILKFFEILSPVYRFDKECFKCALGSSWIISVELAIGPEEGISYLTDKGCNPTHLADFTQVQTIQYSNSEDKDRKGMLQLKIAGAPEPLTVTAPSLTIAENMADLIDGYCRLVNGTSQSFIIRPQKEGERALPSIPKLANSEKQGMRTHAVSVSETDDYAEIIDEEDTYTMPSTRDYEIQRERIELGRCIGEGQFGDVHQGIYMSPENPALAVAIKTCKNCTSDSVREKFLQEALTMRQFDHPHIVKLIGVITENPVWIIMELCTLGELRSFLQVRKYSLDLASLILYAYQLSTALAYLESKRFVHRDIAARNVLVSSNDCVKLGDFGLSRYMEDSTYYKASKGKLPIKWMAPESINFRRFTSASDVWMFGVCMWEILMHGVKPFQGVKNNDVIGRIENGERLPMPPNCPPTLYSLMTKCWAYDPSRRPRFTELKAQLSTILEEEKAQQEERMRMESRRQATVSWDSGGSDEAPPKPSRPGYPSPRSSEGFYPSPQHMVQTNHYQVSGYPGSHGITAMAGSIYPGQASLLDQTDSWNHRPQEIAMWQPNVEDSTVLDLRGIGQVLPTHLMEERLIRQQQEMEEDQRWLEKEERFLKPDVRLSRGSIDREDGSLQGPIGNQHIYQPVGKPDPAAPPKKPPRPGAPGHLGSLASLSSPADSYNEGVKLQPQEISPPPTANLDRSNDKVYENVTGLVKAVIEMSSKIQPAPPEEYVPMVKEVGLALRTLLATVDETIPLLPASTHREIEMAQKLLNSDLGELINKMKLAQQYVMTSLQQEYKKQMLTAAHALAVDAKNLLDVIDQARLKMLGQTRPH",
  "assay": "FAK3 Kinase Inhibition Assay",
  "format": "biochemical",
  "conditions": "in vitro enzyme assay, Poly (Glu, Ala, Tyr) substrate; read-out: FAK inhibitory activity IC50",
  "description": "FAK3 Kinase Inhibition Assay\nThis assay determines the ability of a test compound to inhibit tyrosine kinase activity of human Focal Adhesion Kinase (FAK).\nDNA encoding FAK is obtained by total gene synthesis (Edwards M, International Biotechnology Lab 5(3), 19-25, 1987) or by cloning. These are then expressed in a suitable expression system to obtain polypeptide with tyrosine kinase activity.\nActive FAK protein has been previously expressed in a baculovirus system using a similar N-terminal 6-histidine tag (Protein Expression And Purification, 1996, 7: 12-18). The human FAK cDNA was cloned into the baculovirus transplacement vector, pFastbac 1 (Life Technologies), and the recombinant construct was co-transfected into insect cells (for example Spodoptera frugiperda 21(Sf21)) with viral DNA to prepare recombinant baculovirus (details of the methods for the assembly of recombinant DNA molecules and the preparation and use of recombinant baculovirus can be found in standard texts for example Sambrook et al, 1989, Molecular cloning—A Laboratory Manual, 2nd edition, Cold Spring Harbour Laboratory Press and O'Reilly et al, 1992, Baculovirus Expression Vectors—A Laboratory Manual, W.H. Freeman and Co, New York. Details specific to the use of the pFastbac (‘Bac to Bac’) system are provided in Anderson et al., 1995, FOCUS (Life Technologies Bulletin Magazine), 17, p53.) […]",
  "data": [
    {"molecule": "CN(C)CC(O)COc1ccc(Nc2nccc(N3CCc4cc(Br)ccc43)n2)cc1", "note": "(stereo not shown) [Example 3]", "values": [
      {"measurement": "IC50", "value": 553, "unit": "nM"}
    ]}
  ]
}
